Data: ChEMBL document CHEMBL5143568, “Identification of novel xanthine oxidase inhibitors via virtual screening with enhanced characterization of molybdopterin binding groups” (Eur J Med Chem, 2022)

The compounds below were run against T1, Xanthine dehydrogenase/oxidase (Homo sapiens, UniProt P47989) (assay: Inhibition of xanthine oxidase (unknown origin) measured by spectrophotometric analysis).
T1 sequence (P47989 whole entry): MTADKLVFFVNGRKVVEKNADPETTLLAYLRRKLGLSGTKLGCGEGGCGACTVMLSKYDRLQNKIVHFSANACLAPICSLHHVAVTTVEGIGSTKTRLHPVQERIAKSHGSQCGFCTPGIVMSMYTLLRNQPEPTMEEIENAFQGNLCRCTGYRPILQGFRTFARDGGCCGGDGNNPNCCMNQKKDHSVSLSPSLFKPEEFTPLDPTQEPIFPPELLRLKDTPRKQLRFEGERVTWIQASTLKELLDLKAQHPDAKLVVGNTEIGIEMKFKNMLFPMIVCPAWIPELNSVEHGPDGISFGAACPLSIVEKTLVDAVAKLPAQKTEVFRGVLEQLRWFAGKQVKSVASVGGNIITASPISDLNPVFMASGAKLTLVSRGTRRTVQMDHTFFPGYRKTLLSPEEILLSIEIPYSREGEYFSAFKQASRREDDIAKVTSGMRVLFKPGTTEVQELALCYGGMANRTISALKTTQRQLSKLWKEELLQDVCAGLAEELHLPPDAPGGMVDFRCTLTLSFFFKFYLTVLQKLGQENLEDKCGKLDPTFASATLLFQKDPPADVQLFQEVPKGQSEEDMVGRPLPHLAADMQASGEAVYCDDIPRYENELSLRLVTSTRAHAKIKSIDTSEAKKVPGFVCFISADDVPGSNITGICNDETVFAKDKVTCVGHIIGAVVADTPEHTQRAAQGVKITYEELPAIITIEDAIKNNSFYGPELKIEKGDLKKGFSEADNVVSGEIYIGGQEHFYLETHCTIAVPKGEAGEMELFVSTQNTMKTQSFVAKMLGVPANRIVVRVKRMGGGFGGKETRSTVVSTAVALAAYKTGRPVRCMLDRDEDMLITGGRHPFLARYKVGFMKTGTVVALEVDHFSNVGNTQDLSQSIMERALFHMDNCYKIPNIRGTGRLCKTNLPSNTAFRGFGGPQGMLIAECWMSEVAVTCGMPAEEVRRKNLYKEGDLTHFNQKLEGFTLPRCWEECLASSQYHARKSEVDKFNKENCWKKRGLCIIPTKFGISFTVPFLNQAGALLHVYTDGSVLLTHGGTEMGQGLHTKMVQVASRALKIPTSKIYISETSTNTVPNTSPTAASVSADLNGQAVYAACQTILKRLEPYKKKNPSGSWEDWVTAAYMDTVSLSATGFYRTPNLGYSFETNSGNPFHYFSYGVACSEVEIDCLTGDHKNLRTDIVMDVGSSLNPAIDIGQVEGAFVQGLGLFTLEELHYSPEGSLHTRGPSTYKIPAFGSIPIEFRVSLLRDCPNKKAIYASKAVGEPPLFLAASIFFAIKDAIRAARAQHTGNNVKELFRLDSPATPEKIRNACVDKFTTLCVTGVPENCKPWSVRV

| IC50 | Compound |
| --- | --- |
| 1.02 µM | NC1=NC(=O)/C(=C/c2cccc(F)c2)S1 |
| 0.00292 µM | Cc1nc(-c2ccc(OCC(C)C)c(C#N)c2)sc1C(=O)O [FEBUXOSTAT] |

What follows are compounds tested against T1, Xanthine dehydrogenase/oxidase (assay: Inhibition of xanthine oxidase (unknown origin) at 10 uM measured by spectrophotometric analysis relative to control).

| inhibition at 10 µM | Compound |
| --- | --- |
| 91.5% | NC1=NC(=O)/C(=C/c2cccc(F)c2)S1 |
| 44.4% | COc1ccc(/C=C2\SC(=S)NC2=O)cc1OC |
| < 40% | O=C1N=C(S)S/C1=C/c1cc(Cl)ccc1O |
| < 40% | N=C1SCC(=O)N1c1ncc(OCc2ccc(Cl)cc2Cl)s1 |
| < 40% | Cc1ccc(C(=O)Oc2ccc(Br)cc2/C=C2\SC(N)=NC2=O)cc1 |
| < 40% | Cc1ccc(C(=O)Oc2cccc(/C=C3\SC(N)=NC3=O)c2)cc1 |
| < 40% | NC1=NC(=O)/C(=C/c2cc(Br)cc(Br)c2OCc2ccc(Cl)cc2Cl)S1 |
| < 40% | Cc1ccc(Cl)c2c1NC(=O)/C2=C1/SC(N)=NC1=O |
| < 40% | COc1cc(/C=C2/SC(S)=NC2=O)ccc1Cc1ccccc1Cl |
| < 40% | COc1ccc(/C=C2/SC(N)=NC2=O)cc1 |

Each compound was assayed against T1, Xanthine dehydrogenase/oxidase (assay: Inhibition of xanthine oxidase (unknown origin) at 0.1 uM measured by spectrophotometric analysis relative to control).

| inhibition at 0.1 µM | Compound |
| --- | --- |
| 102% | Cc1nc(-c2ccc(OCC(C)C)c(C#N)c2)sc1C(=O)O [FEBUXOSTAT] |
